The text below walks through data of patent US20150104519A1, “Pharmaceutical Compositions” (Alpharma Pharmaceuticals LLC, priority 2007, published 2015).

For data set [1] the following is noted: in comparison to a 15 mg dose of hydrocodone.
For data set [2] the following is noted: cited from earlier work.
Data set [3] deals with morphine effects. Conditions: three 100-mg doses of naltrexone; MS Contin; cited from earlier work.
In data set [4] the test system is mu over delta sites. Conditions: cited from earlier work.

Counter-ions that a name gives are not always drawn.

Consider `COc1ccc2c3c1O[C@H]1[C@@H](O)C=C[C@H]4[C@@H](C2)N(C)CC[C@@]341` [Codeine], for which the “Equianalgesic dose, Calculated Dose” value in data set [1] was 90.0 mg.

On to `COc1ccc2c3c1OC1C(=O)CC[C@H]4[C@@H](C2)N(C)CC[C@]314` (stereo partly drawn) [Hydrocodone, 4,5-epoxy-3-methoxy-17-methylmorphinan-6-one], for which the “Equianalgesic dose, Calculated Dose” value in data set [1] is given as 15.0 mg. As for `CN1CC[C@]23CCCC[C@H]2[C@H]1Cc1ccc(O)cc13` [Levorphanol], the “Equianalgesic dose, Calculated Dose” value in data set [1] is given as 1.8 mg. The same measure, in the same setting: the same measure for `CCC(=O)C(CC(C)N(C)C)(c1ccccc1)c1ccccc1` (stereo not drawn) [Methadone]: 9.0 mg; for `COc1ccc2c3c1OC1C(=O)CC[C@@]4(O)[C@@H](C2)N(C)CC[C@]314` (stereo partly drawn) [Oxycodone, 4,5-epoxy-14-hydroxy-3-methoxy-17-methylmorphinan-6-one]: 13.5 mg.

Regarding `O=C1CC[C@@]2(O)[C@H]3Cc4ccc(O)c5c4[C@@]2(CCN3CC2CC2)[C@H]1O5` [hydrochloride salt of naltrexone, Naltrexone HCl], the soluble in water result in data set [2] is reported as “about 100 mg/cc”. Regarding `O=C1CC[C@@]2(O)[C@H]3Cc4ccc(O)c5c4[C@@]2(CCN3CC2CC2)[C@H]1O5` [naltrexone], the “blockade of morphine effects” value in data set [3] was “blocked”. Further, the “blocking action, site preference” value in data set [4] was “strong preferential blocking action against mu over delta sites”. In the case of Meperidine, in data set [1], the “Equianalgesic dose, Calculated Dose” value is listed as 135.0 mg.
